“And” between values parts separate entries of the source, which are not always exact repeats. Equal values may be shown once. Read-outs that look alike come from different tables or passages of the source.
Assays:
eye [1] = test: Clinical observation of eye after PC injection of doxorubicin; assay type: in vivo, rabbits; conditions: free drug
Experimental: 2. 50 μg/0.10 ml of doxorubicin was injected into one eye of two animals for clinical observation for one week. Saline control was injected into the contralateral eye.

eye [2] = test: Ocular toxicity observation after AC injection of unencapsulated doxorubicin; assay type: in vivo, New Zealand white rabbits
Experimental: 2. 50 μg/0.10 ml doxorubicin was injected into the […] in each of two rabbits. The contralateral eye was given 0.10 ml of normal saline.

in vivo = test: in vivo; set-up: species or system New Zealand white rabbits; conditions: rabbit
Experimental: 1. 50 μg/0.1 ml doxorubicin was injected into the AC of 10 New Zealand white rabbits. The AC was tapped for doxorubicin assay.

[3] = Residual vitreous doxorubicin after injection of doxorubicin into the PC; assay type: in vivo, rabbits
Experimental: 1. 50 μg/0.1 ml doxorubicin was injected into the posterior chamber (PC) of each of 10 rabbits. The contralateral eye served as control.

[4] = 50 ug into PC right eye, free drug, 0 hours

COc1cccc2c1C(=O)c1c(O)c3c(c(O)c1C2=O)C[C@@](O)(C(=O)CO)C[C@@H]3O[C@H]1C[C@H](N)[C@H](O)[C@H](C)O1 [doxorubicin]
clinical tolerance of PC injection (eye [1]): well tolerated | evidence of toxicity (eye [1]): No evidence of toxicity | ocular toxicity (eye [2]): causes ocular inflammation and corneal edema | time of ocular inflammation and corneal edema after AC injection (eye [2]): 2 to 3 days | half-life (in vivo): ~1 h | Residual vitreous doxorubicin, Mean ± SD [3, 4]: 8.55 ± 0.24 µg/mL | Residual vitreous doxorubicin, single sample [3, 4]: 8.40 µg/mL and 8.74 µg/mL | Residual vitreous doxorubicin, single sample ([3]; 50 ug into PC right eye, free drug, 2 hours, 120 min): 4.65 µg/mL | Residual vitreous doxorubicin, single sample ([3]; 50 ug into PC right eye, free drug, 4 hours, 240 min): 3.4 µg/mL | Residual vitreous doxorubicin, single sample ([3]; 50 ug into PC right eye, free drug, 8 hours, 480 min): 0.75 µg/mL | Residual vitreous doxorubicin, single sample ([3]; 50 ug into PC right eye, free drug, 16 hours, 960 min): 0.21 µg/mL | concentration at 2 h ([3]; rabbit, vitreous, 0.05 mg, 50 ug into PC right eye, free drug, 2 hours, read-out: Residual vitreous doxorubicin, Mean ± SD): 5590 ± 1340 ng/mL | concentration at 2 h ([3]; rabbit, vitreous, 0.05 mg, 50 ug into PC right eye, free drug, 2 hours, read-out: Residual vitreous doxorubicin, single sample): 6540 ng/mL | concentration at 4 h ([3]; rabbit, vitreous, 0.05 mg, 50 ug into PC right eye, free drug, 4 hours, read-out: Residual vitreous doxorubicin, Mean ± SD): 3850 ± 640 ng/mL | concentration at 4 h ([3]; rabbit, vitreous, 0.05 mg, 50 ug into PC right eye, free drug, 4 hours, read-out: Residual vitreous doxorubicin, single sample): 4300 ng/mL | concentration at 8 h ([3]; rabbit, vitreous, 0.05 mg, 50 ug into PC right eye, free drug, 8 hours, read-out: Residual vitreous doxorubicin, Mean ± SD): 860 ± 160 ng/mL | concentration at 8 h ([3]; rabbit, vitreous, 0.05 mg, 50 ug into PC right eye, free drug, 8 hours, read-out: Residual vitreous doxorubicin, single sample): 980 ng/mL | concentration at 16 h ([3]; rabbit, vitreous, 0.05 mg, 50 ug into PC right eye, free drug, 16 hours, read-out: Residual vitreous doxorubicin, Mean ± SD): 240 ± 40 ng/mL | concentration at 16 h ([3]; rabbit, vitreous, 0.05 mg, 50 ug into PC right eye, free drug, 16 hours, read-out: Residual vitreous doxorubicin, single sample): 260 ng/mL | half-life ([3]; rabbit, vitreous, 0.05 mg, PC injection, 50 ug, read-out: halflife of free doxorubicin (converted)): ~3 h
